pIC50: −log10 of the molar value.
Target: T1, human CB2 receptor (Homo sapiens, UniProt P34972)
T1 construct: expressed in transfected cells
Experiment: Human CB2 receptor binding inhibition test ([3H]CP-55,940, CHO membrane fractions)
Conditions: not given
Text: Human CB2 Receptor Binding Inhibition Test
First, cDNA sequence (Munro et al., Nature, 1993, 365, 61-65) encoding a human CB2 receptor was inserted in the forward direction in an animal-cell expression vector, pTARGET Vector (manufactured by Promega) at a region downstream of a CMV promoter. Host cells CHO-DHFR(−) were transfected with the obtained expression vector with the aid of Lipofectamine (manufactured by Invitrogen) to obtain cells capable of stably expressing the CB2 receptor.
After the filtrate was washed with an assay buffer containing 0.1% bovine serum albumin, the radioactivity on the glass filter was measured by a liquid scintillation counter. Nonspecific binding was measured in the presence of 2.0 μM CP-55,940 (manufactured by Tocris). 50% inhibitory concentration (IC50 value) of the test compound for the specific binding was obtained.

T1 sequence (P34972 whole entry): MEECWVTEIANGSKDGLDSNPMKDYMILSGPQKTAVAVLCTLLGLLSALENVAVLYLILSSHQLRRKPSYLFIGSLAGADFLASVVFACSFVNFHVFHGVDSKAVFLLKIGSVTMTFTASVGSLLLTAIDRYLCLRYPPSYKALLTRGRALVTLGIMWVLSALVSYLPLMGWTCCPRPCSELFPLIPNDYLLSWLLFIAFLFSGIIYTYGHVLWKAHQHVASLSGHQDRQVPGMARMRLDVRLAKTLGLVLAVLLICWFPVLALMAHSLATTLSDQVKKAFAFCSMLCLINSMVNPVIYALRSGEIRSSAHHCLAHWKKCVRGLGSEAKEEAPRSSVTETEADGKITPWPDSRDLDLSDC

SMILES | pIC50
Cn1c(C(C)(C)C)c/c(=N\C(=O)c2cccc(C(F)(F)F)c2Cl)n1CC1CC1 [Compound No. 476, N-(5-t-butyl-2-cyclopropylmethyl-1,2-dihydro-1-methylpyrazol-3-ylidene)-2-chloro-3-(trifluoromethyl)benzamide] | 8.41

Same assay, conditions: [3H]CP-55,940, membrane fractions of CHO cells stably expressing human CB2 receptor, 25° C., 2 hours; read-out: CB2 IC50 (Inhibition of binding to human CB2 receptor)

SMILES | pIC50
Cc1c(C(C)(C)C)s/c(=N\C(=O)C2C[C@H]2c2ccccc2)n1CC1CC1 (mixture of isomers) [compound 337] | 8.55
Cc1s/c(=N\C(=O)CC(C)CC(C)(C)C)n(CC2CC2)c1C (racemic) [compound 99] | 8.19
CC(C)(C)c1c/c(=N\C(=O)c2cc(C(F)(F)F)ccc2F)n(CC2CC2)o1 [compound 54] | 7.73
CC(C)(C)c1c/c(=N\C(=O)c2cccc(C(F)(F)F)c2)n(CC2CC2)s1 [compound 57] | 8.42
CCc1ccccc1C(=O)/N=c1\sc(C(C)(C)C)c(C)n1CC [compound 150] | 7.82
CCn1c(C)c(C(C)(C)C)s/c1=N\C(=O)c1ccc(Cl)cc1OC [compound 168] | 8.27
Cc1c(C(C)(C)C)s/c(=N\C(=O)c2cccc(Cl)c2)n1CC1CC1 [compound 187] | 7.77
COc1ccccc1C(=O)/N=c1\sc(C(C)(C)C)c(C)n1CC1CC1 [compound 195] | 8.49
Cc1c(C(C)(C)C)s/c(=N\C(=O)c2ccccc2OC(F)(F)F)n1CC1CC1 [compound 197] | 8.70
Cc1c(C(C)(C)C)s/c(=N\C(=O)c2cccc(C#N)c2)n1CC1CC1 [compound 211] | 7.92
Cc1c(C(C)(C)C)s/c(=N\C(=O)c2cccc(F)c2F)n1CC1CC1 [compound 222] | 7.95
Cc1c(C(C)(C)C)s/c(=N\C(=O)c2cccc(Cl)c2F)n1CC1CC1 [compound 225] | 8.41
Cc1c(C(C)(C)C)s/c(=N\C(=O)c2cccc(C(F)(F)F)c2F)n1CC1CC1 [compound 250] | 8.96
Cc1c(C(C)(C)C)s/c(=N\C(=O)c2ccc(F)cc2C(F)(F)F)n1CC1CC1 [compound 255] | 9.22
Cc1c(C(C)C)o/c(=N\C(=O)c2cccc(C(F)(F)F)c2F)n1CC1CC1 [compound 369] | 8.85
CCCCn1c(C)c(C(C)(C)C)s/c1=N\S(=O)(=O)c1cccc2ccccc12 [compound 387] | 7.86
Cc1c(C(C)(C)C)s/c(=N\S(=O)(=O)c2cccc(Cl)c2Cl)n1CC1CC1 [compound 399] | 8.17
Cc1c(C(C)(C)C)s/c(=N\S(=O)(=O)c2c(Cl)cccc2Cl)n1CC1CC1 [compound 402] | 7.81
Cc1cc(C)c(S(=O)(=O)/N=c2\sc(C(C)(C)C)c(C)n2CC2CC2)c(C)c1 [compound 410] | 8.15
CC#CCn1c(C)c(C(C)(C)C)s/c1=N\S(=O)(=O)c1cccc2ccccc12 [compound 427] | 8.23
Cc1c(C(=O)/N=c2\cc(C(C)(C)C)n(C)n2CC2CC2)cccc1C(F)(F)F [compound 470] | 7.97
Cn1c(C(C)(C)C)c/c(=N\C(=O)c2cccc(C(F)(F)F)c2F)n1CC1CCC1 [compound 482, N-(5-t-butyl-2-cyclobutylmethyl-1,2-dihydro-1-methylpyrazol-3-ylidene)-2-fluoro-3-(trifluoromethyl)benzamide] | 8.92
Cn1c(C(C)(C)C)c/c(=N\C(=O)c2cccc(C(F)(F)F)c2F)n1CC1CCCC1 [compound 485] | 8.96
CCOCCn1/c(=N/C(=O)c2cccc(C(F)(F)F)c2F)cc(C(C)(C)C)n1C [compound 488] | 8.40
CC(C)OCCn1/c(=N/C(=O)c2cccc(C(F)(F)F)c2F)cc(C(C)(C)C)n1C [compound 493] | 8.72
CCn1c(C(C)(C)C)c/c(=N\C(=O)c2cccc(C(F)(F)F)c2F)n1CC1CC1 [compound 495] | 8.20
CC(C)(C)c1nn(CC2CC2)/c(=N/C(=O)c2cccc(C(F)(F)F)c2F)s1 [compound 504] | 7.81
CCOc1ccncc1C(=O)/N=c1\sc(C(C)(C)C)nn1CC1CC1 [compound 513] | 7.77

Test system: not given
Experiment: not given
Conditions: not given

SMILES | melting point
Cc1c(C(C)(C)C)s/c(=N\C(=O)C2C[C@H]2c2ccccc2)n1CC1CC1 (mixture of isomers) [compound 337] | 110 to 112 °C
Cc1s/c(=N\C(=O)CC(C)CC(C)(C)C)n(CC2CC2)c1C (racemic) [compound 99] | 42 to 43 °C
